Reference: US11903923B2, “Use of andrographolide derivatives in preparation of medicaments for preventing and treating inflammatory bowel diseases” (GUANGZHOU MAGPIE PHARMACEUTICALS CO., LTD., priority 2015, dated 2024)

Experiments:
[1] = first 60 minutes of the reaction, in vitro; cited from earlier work
[2] = system: TNBS-induced ulcerative colitis mice; assay: body weight of TNBS-induced ulcerative colitis mice; format: in vivo
Excerpt: The mice of normal control group were shown lively, body hair shiny, and weight continued to increase. The model mice after TNBS enema appeared to be apathetic and lazy with body hair messy and less luster, and with water intake being reduced. The model mice were also shown continuing decrease in body weight, with an average weight loss of 17.9% on the third day compared with that before rectal perfusion.

TNF-α = assay: serum inflammatory cytokine TNF-α in TNBS-induced ulcerative colitis mice; format: in vivo
COX-2 = assay: expression of COX-2 in colon tissue; format: in vivo; conditions: TNBS-induced mice
Excerpt: Cyclooxygenase-2 (COX-2) is undetectable in normal human colonic epithelial cells, but the presence of a large amount of COX-2 can be detectable in the intestinal mucosal epithelial cells of CD patients and UC patients. Such high expression can cause elevated expression of pro-inflammatory substance of prostaglandin, and promote IBD epithelial congestion and edema.

[3] = system: TNBS-induced ulcerative colitis mice; assay: morphological observation of the colon of TNBS-induced ulcerative colitis mice; format: in vivo
Excerpt: In the TNBS model group mice, the lesions of the colon were obvious, the colon was shortened, the proximal colon was dilated with indication of obstructive lesions, and the distal intestine became narrowed with indication of ulceration with congestion, edema, erosion and intestinal wall thickening.

myeloperoxidase (MPO) = assay: MPO activity test in colon tissue of TNBS-induced ulcerative colitis mice; format: in vivo
Excerpt: It can be seen from the results of MPO activity test in colonic tissues that the content of MPO in normal tissue was very low, the neutrophil infiltration was obvious in model group treated with TNBS, and the content of MPO increased obviously, being twice as that in normal group.

[4] = system: TNBS-induced ulcerative colitis mice; assay: disease activity index (DAI) of TNBS-induced ulcerative colitis mice; format: in vivo; conditions: third day after enema
[5] = system: TNBS-induced ulcerative colitis mice; assay: histopathological observation (HE staining, CMDI) of the colon of TNBS-induced ulcerative colitis mice; format: in vivo
Excerpt: Colon tissues were paraffin-embedded and sliced in parallel with HE staining.

IL-6 = assay: serum inflammatory cytokine IL-6 in TNBS-induced ulcerative colitis mice; format: in vivo
[6] = system: p65 subunit in the NF-κB signaling pathway; assay: Western blotting of p-p65 and p65 in colonic tissues; format: in vivo, mice; conditions: compared with the model group
Excerpt: NF-κB, as a key transcription factor regulating the release of inflammatory cytokines, plays an important role in the complex cytokine dysregulation network of IBD. To investigate whether the inhibitory effect of AL-1 on the expression of inflammatory cytokines TNF-α, IL-6 and IL-1β is related to the activation of NF-κB signaling pathway, the present inventors used Western blotting to detect the expression of p-p65 and p65 in colonic tissues.

[7] = system: TNBS-induced ulcerative colitis mice; assay: colon length of TNBS-induced ulcerative colitis mice; format: in vivo; conditions: three days after TNBS enema
IL-1β = assay: serum inflammatory cytokine IL-1β in TNBS-induced ulcerative colitis mice; format: in vivo
PPAR-γ = assay: amount of PPAR-γ expressed in colon tissue; format: in vivo; conditions: TNBS-induced mice
Excerpt: Peroxisome proliferator-activated receptor γ (PPAR-γ) may have anti-inflammatory effects by inhibiting the expression of transcription factors NF-κB, AP-1 and other related genes, have the effects of reducing the expression of inflammatory factors and adhesion molecules, and play important role for maintaining the integrity of the intestinal mucosa. Studies have shown that, when IBD occurred, the in vivo expression of PPAR-γ would be reduced in some extent.

For `C=C1CCC2[C@@](C)(CC[C@@H](O)[C@@]2(C)CO)C1C/C=C1/C(=O)OCC1OC(=O)CCCCC1CCSS1` (stereo partly shown) [AL-1], the “binding rate with the sulfydryl group of GSH relative to Andro” value [1] is given as 7 times, the “body weight increase on average compared with the model group” value ([2]; AL-1 45 mg/kg, third day) is given as 4.65% and the “serum level of TNF-α” value (TNF-α; AL-1 5, 15, 45 mg/kg) is given as “significantly lessen the increase”. The “COX-2 expression level in colon tissue” value (COX-2) was “effectively inhibit the increase of COX-2 expression level”, the colon morphology ([3]; AL-1 5, 15 and 45 mg/kg) was “significant reduction of the symptoms” and the “MPO content in the colon tissue” value (myeloperoxidase (MPO); AL-1 5, 15 and 45 mg/kg) was “lessen in a dose-dependent manner the increase of the MPO content”. For the same molecule, the “average DAI score” value ([4]; 5 mg/kg) was 6.00, the “average DAI score” value ([4]; 15 mg/kg) was 6.25 and the “average DAI score” value ([4]; 45 mg/kg) was 4.00. The “colon histopathology (HE staining)” value ([5]; 5 mg/kg) was “obvious myositis cell infiltration of mucosa and submucosa but in much less extent as compared with the model groups”, the “colon histopathology (HE staining)” value ([5]; 15 mg/kg) was “myositis cell infiltration was reduced” and the “colon histopathology (HE staining)” value ([5]; 45 mg/kg) was “significant reduction in the amount of myositis cell infiltration of mucosa and submucosa”. For the same molecule, the “CMDI (tissue damage)” value ([5]; AL-1 5, 15 and 45 mg/kg) was “improve tissue damage in a dose-dependent manner”, the “serum level of IL-6” value (IL-6; AL-1 5, 15, 45 mg/kg) was “significantly lessen the increase” and the “phosphorylation level of p65 in colonic tissue” value [6] was “significantly reduce the phosphorylation level of p65”. For the same molecule, the colon length ([7]; AL-1 5, 15 and 45 mg/kg) was “enhanced the colonic length”, the “serum level of IL-1β” value (IL-1β; AL-1 5, 15, 45 mg/kg) was “significantly lessen the increase” and the “expression of PPAR-γ in colon tissue” value (PPAR-γ) was “significantly increased the expression of PPAR-γ”.
With `Nc1ccc(O)c(C(=O)O)c1` [Mesalazine, reference compound] the “body weight of the mice” value ([2]; Mesalazine, from the second day after modeling, P<0.05) was “significantly increased body weight”, the “serum level of TNF-α” value (TNF-α; Mesalazine) was “significantly lessen the increase” and the “COX-2 expression level in colon tissue” value (COX-2) was “effectively inhibit the increase of COX-2 expression level”. The colon morphology ([3]; Mesalazine group) was “improvement on colon injury”, the “MPO content in the colon tissue” value (myeloperoxidase (MPO); Mesalazine, P<0.01) was “obviously reduce the content of MPO” and the “average DAI score” value ([4]; 100 mg/kg) was 5.13. The “colon histopathology (HE staining)” value ([5]; 100 mg/kg) was “obvious relief of myositis cell infiltration”, the “CMDI (mucosal injury)” value ([5]; Mesalazine) was “significant effect to improve mucosal injury” and the “serum level of IL-6” value (IL-6; Mesalazine) was “significantly lessen the increase”. For the same molecule, the “phosphorylation level of p65 in colonic tissue” value [6] was “significantly reduce the phosphorylation level of p65”, the “improvement of colon length” value ([7]; Mesalazine, compared with the model groups) was “not significant” and the “serum level of IL-1β” value (IL-1β; Mesalazine) was “significantly lessen the increase”. For the same molecule, the “expression of PPAR-γ in colon tissue” value (PPAR-γ) was “significantly increased the expression of PPAR-γ”.
